Patent publication US5880099A, “Inositol polyphosphates and methods of using same” (The Regents of the University of California, priority 1997, dated 1999)
Entries after “also recorded” stand apart in the source; their conditions may differ.

How the values were obtained:
Ins(3,4,5,6)P4 = settings: cited from earlier work
[1] = tested on: T84 cells (thapsigargin-stimulated chloride ion secretion); experiment: Thapsigargin-stimulated chloride ion secretion in T84 cells; format: cell-based, human; settings: carbachol 10^-4 M, thapsigargin 1 μM; FIG. 5A
Excerpt: Carbachol, a muscarinic cholinergic compound, also increases intracellular calcium ion concentration and stimulates chloride ion secretion with short term treatment. However, following long-term treatment of colonic epithelial T84 cells with carbachol, increased concentrations of intracellular calcium ions no longer stimulate chloride ion secretion (Kachintorn et al., Am. J. Physiol. Cell 264:C671 (1993)), which is incorporated herein by reference. […] Thus, Ins(3,4,5,6)P4 is an endogenous negative regulator of calcium-mediated chloride ion secretion because it uncouples chloride ion secretion from calcium ion concentration.
One set of cells was preincubated for 30 min with an inositol polyphosphate derivative. The other two sets of cells were preincubated with vehicle, alone. Measurement of Isc was initiated at time 0. At 5 min, carbachol (10^-4 M) was added to one set of cells preincubated with vehicle alone (designated "Carbachol" in FIG. 5) and to the set of cells preincubated with inositol polyphosphate derivatives (designated "Carbachol+D,L-1,2-Cyclohexylidene-Ins(3,4,5,6)P4 /AM" in FIG. 5A). At 30 min, 1 μM thapsigargin was added. Data were collected for n=4 to 6 experiments.

inositol 1 kinase = settings: in vitro; Tan et al.; cited from earlier work
Ins(1,3,4)P3-5/6-kinase = settings: Vajanaphanich et al. 1994; cited from earlier work
[2] = tested on: rabbit colon (calcium-mediated chloride ion secretion); experiment: Chloride ion secretion in rabbit colonic epithelia (Ussing chambers)
Description: The results obtained above using T84 colonic epithelial cells in culture were confirmed using a rabbit colon model system (Frizzell et al., J. Membrane Biol. 27:297 (1976); and Frizell and Schultz, Int. Rev. Physiol. 19:205 (1979)), each of which is incorporated herein by reference. Segments of rabbit colon were excised and used as a source of rabbit colonic epithelia. Briefly, segments of rabbit colon were washed with Ringers solution containing 141 mM Na^+, 5 mM K^+, 1.2 mM Ca^2+, 1.2 mM Mg^2+, 122 mM Cl^-, 25 mM HCO3, 1.6 mM HPO4, 0.4 mM H2 PO4 and 10 mM glucose. At 37° C., this solution is pH 7.4 when gassed with 5% CO2 and 95% O2. Epithelium was stripped of the underlying muscle layer and mounted in modified SNAP WELLS (Frizzell et al., supra, 1976). Epithelia were preincubated with 200 μM 1,2-Bt2 -Ins(3,4,5,6)P4 /AM for 30 min at 37° C. and mounted in Ussing chambers. Short circuit current, conductance and resistance were measured at 4 sec intervals as described in Example I. Peak Isc was 50.9% ±10.4 of controls which were incubated with vehicle (FIG. 2; mean±SEM, n=3; p<0.05 by Student's two tailed t-test). The % control shown in FIG. 2 represents ΔIsc over peak Isc in control monolayers stimulated with histamine.

[3] = tested on: T84 cells (cyclic AMP-mediated chloride ion secretion); experiment: Dibutyryl cyclic AMP acetoxymethyl ester stimulated chloride ion secretion in T84 cells; format: cell-based, human
Description: Enantiomerically pure 1,2-Bt2 -Ins(3,4,5,6)P4 /AM was synthesized to determine if 1,2-Bt2 -Ins(3,4,5,6)P4 /AM mediates the uncoupling of chloride ion secretion from intracellular calcium concentrations. T84 cells (passages 18-48) were maintained as described previously (Weymer, et al., J. Clin. Invest. 76:1828 (1985)), which is incorporated herein by reference. After 7-10 days of incubation on SNAP-WELLS (Corning Costar; Cambridge, Mass.), monolayers had formed tight junctions. Cell monolayers were preincubated with 100, 200 or 400 μM Bt2 -Ins(3,4,5,6)P4 /AM for 30 min prior to mounting. […] Chloride ion secretion was measured as short circuit current (Isc) across T84 monolayers grown to confluence and mounted in Ussing chambers equipped with voltage clamps (Physiologic Instruments; San Diego, Calif.). Data was acquired and analyzed using "Acquire and Analyze" software (Physiologic Instruments).
[…]; mean±SEM; n=4).

[4] = tested on: T84 cells (histamine-stimulated chloride ion secretion); experiment: Histamine-stimulated chloride ion secretion (short circuit current) in T84 monolayers; format: cell-based, human; settings: for effect on histamine-stimulated / calcium-mediated chloride ion secretion (in words): T84 cells
Description: Enantiomerically pure 1,2-Bt2 -Ins(3,4,5,6)P4 /AM was synthesized to determine if 1,2-Bt2 -Ins(3,4,5,6)P4 /AM mediates the uncoupling of chloride ion secretion from intracellular calcium concentrations. […] After 7-10 days of incubation on SNAP-WELLS (Corning Costar; Cambridge, Mass.), monolayers had formed tight junctions. Cell monolayers were preincubated with 100, 200 or 400 μM Bt2 -Ins(3,4,5,6)P4 /AM for 30 min prior to mounting. After an additional 30 min, 0.1 mM histamine was added and chloride ion secretion was monitored. Chloride ion secretion was measured as short circuit current (Isc) across T84 monolayers grown to confluence and mounted in Ussing chambers equipped with voltage clamps (Physiologic Instruments; San Diego, Calif.). Data was acquired and analyzed using "Acquire and Analyze" software (Physiologic Instruments).
(§1) Initial studies were directed towards understanding structural determinants of Ins(3,4,5,6)P4 responsible for the inhibitory effect on calcium-mediated chloride ion secretion. A series of cell permeable inositol polyphosphate derivatives were synthesized. These derivatives contained either one or two non-hydrolyzable chemical groups on the 1, 2 or 3 position. T84 monolayers were preincubated for 30 minutes with 200 μM of 2-Bt-1-Me-Ins(3,4,5,6)P4 /AM, Me2 -Ins(3,4,5,6)P4 /AM, Me2 -Ins(1,4,5,6)P4 /AM or 2-Bt-3-Me-Ins(1,4,5,6)P4 /AM.
(§2) Following the incubation, cells were mounted in Ussing chambers. Calcium-mediated chloride ion secretion was stimulated with histamine (10^-4 M). Control values were the response to histamine in coincubated monolayers. Data are represented as mean peak ΔIsc ±SEM, expressed as % control for 8 to 10 experiments. Significant differences were identified using the Student's two-tailed t test.

[5] = tested on: colonic epithelial T84 cells (calcium-mediated chloride ion secretion); experiment: Inhibition of calcium-mediated chloride ion secretion (Table I summary); format: cell-based, human; settings: pathway: Ins (3,4,5,6)P4
Excerpt: The invention provides compounds that are agonists or antagonists of inositol polyphosphates. Inositol polyphosphate derivatives can function as inositol polyphosphate agonists and antagonists. The effects of compounds of the invention on Ins(3,4,5,6)P4 - and PtdInsP3 -mediated inhibition of calcium-mediated chloride ion secretion are described in the Examples and summarized in Table I.
Enantiomerically pure 1,2-Bt2 -Ins(3,4,5,6)P4 /AM was synthesized to determine if 1,2-Bt2 -Ins(3,4,5,6)P4 /AM mediates the uncoupling of chloride ion secretion from intracellular calcium concentrations. T84 cells (passages 18-48) were maintained as described previously (Weymer, et al., J. Clin. Invest. 76:1828 (1985)), which is incorporated herein by reference. After 7-10 days of incubation on SNAP-WELLS (Corning Costar; Cambridge, Mass.), monolayers had formed tight junctions. Cell monolayers were preincubated with 100, 200 or 400 μM Bt2 -Ins(3,4,5,6)P4 /AM for 30 min prior to mounting. After an additional 30 min, 0.1 mM histamine was added and chloride ion secretion was monitored. Chloride ion secretion was measured as short circuit current (Isc) across T84 monolayers grown to confluence and mounted in Ussing chambers equipped with voltage clamps (Physiologic Instruments; San Diego, Calif.). Data was acquired and analyzed using "Acquire and Analyze" software (Physiologic Instruments).

intracellular calcium = experiment: Intracellular calcium concentration in treated cells; format: cell-based, human
Description: Elevation in intracellular calcium concentration leads to increased chloride ion secretion. To ensure that none of the effects of the inositol polyphosphate derivatives on chloride ion secretion were due to changes in calcium levels, the concentration of intracellular calcium was measured in cells treated with the inositol polyphosphate derivatives. […] None of the compounds tested altered intracellular calcium levels by themselves or modified levels of intracellular calcium stimulated with carbachol or thapsigargin. Therefore, the effects of inositol polyphosphate derivatives on chloride ion secretion are not due to any effect on intracellular calcium concentrations.

[6] = tested on: T84 cells (histamine-stimulated chloride ion secretion); settings: equivalent to 200 μM extracellular concentration; Vajanaphanich et al.; cited from earlier work
[7] = tested on: T84 cells (Ins(3,4,5,6)P4 inhibition of histamine-stimulated chloride ion secretion); experiment: Reversal of Bt2 -Ins(3,4,5,6)P4 /AM inhibition of histamine-stimulated chloride ion secretion in T84 cells; format: cell-based, human; settings: T84 cells, histamine-stimulated
Description: as §1, §2
T84 cells were preincubated with cell permeant inositol polyphosphates as described above to determine if any of the inositol polyphosphate derivatives function as antagonists of Ins(3,4,5,6)P4 inhibition of calcium-mediated chloride ion secretion. Following histamine stimulation, short circuit current was measured. […] The % control shown in FIG. 3 represents ΔIsc over peak Isc in control monolayers stimulated with histamine. However, […]

[8] = tested on: T84 cells (histamine-stimulated chloride ion secretion); experiment: Histamine-stimulated chloride ion secretion (short circuit current) in T84 monolayers; format: cell-based; settings: Homo sapiens, T84, 0.5 h; 800 μM compound alone; mean ± SEM; read-out: Peak ΔIsc (% Control) after histamine (100 μM)
[9] = tested on: T84 cells (Ins(3,4,5,6)P4 inhibition of histamine-stimulated chloride ion secretion); experiment: Reversal of Bt2 -Ins(3,4,5,6)P4 /AM inhibition of histamine-stimulated chloride ion secretion in T84 cells; format: cell-based, human; settings: 400 μM antagonist + 200 μM Bt2 Ins (3,4,5,6)P4 /AM; mean ± SEM; 30 min

Compound: C[N+](C)(C)CCOC(N)=O [Carbachol]
- increase in Ins(3,4,5,6)P4 levels (Ins(3,4,5,6)P4; background): ≤ 20 -fold
- rise of intracellular Ins(3,4,5,6)P4 levels (in words) (Ins(3,4,5,6)P4; long-term treatment, Vajanaphanich et al.): slow and prolonged rise of intracellular Ins(3,4,5,6)P4 levels
- effect of prolonged carbachol on thapsigargin-stimulated ΔIsc (in words) [1]: ΔIsc was attenuated

Compound: O=P(O)(O)O[C@H]1[C@H](O)[C@@H](O)[C@H](OP(=O)(O)O)[C@@H](OP(=O)(O)O)[C@H]1O [Ins(1,3,4)P3]
- effect on inositol 1 kinase (in words) (inositol 1 kinase): inhibited inositol 1 kinase

Compound: CCCC(=O)O[C@@H]1[C@H](OC(=O)CCC)[C@H](OP(=O)(OCOC(C)=O)OCOC(C)=O)[C@@H](OP(=O)(OCOC(C)=O)OCOC(C)=O)[C@H](OP(=O)(OCOC(C)=O)OCOC(C)=O)[C@H]1OP(=O)(OCOC(C)=O)OCOC(C)=O [Bt2 -Ins(3,4,5,6)P4 /AM, 1,2-di-O-butyryl-myo-inositol 3,4,5,6-TKphosphate oct (acetoxymethyl) ester]
- effective intracellular concentration (Ins(1,3,4)P3-5/6-kinase): about 4 μM
- effect on chloride ion secretion in rabbit colon (in words) ([2]; FIG. 2 / Example II): inhibition of chloride ion secretion; also recorded: decreases chloride ion secretion in rabbit colon
- activity at 200 µM ([2]; Oryctolagus cuniculus, 0.5 h, 200 μM, 30 min at 37° C., mean±SEM, n=3, p<0.05, read-out: Peak Isc, of controls): 50.9%
- inhibition of dibutyryl cyclic AMP acetoxymethyl ester stimulated chloride ion secretion (in words) [3]: no inhibition
- peak ΔIsc, dibutyryl cyclic AMP acetoxymethyl ester stimulated chloride ion secretion ([3]; mean±SEM, n=4): 96.3±9.1 % or control
- activity at 100 µM ([4]; Homo sapiens, T84, 0.5 h, 100 μM compound, mean ± SEM, read-out: Peak ΔIsc (% Control) after histamine (100 μM)): 75.1 ± 7.4%
- activity at 200 µM ([4]; Homo sapiens, T84, 0.5 h, 200 μM compound alone, mean ± SEM, read-out: Peak ΔIsc (% Control) after histamine (100 μM)): 57.2 ± 15.1%
- activity at 400 µM ([4]; Homo sapiens, T84, 0.5 h, 400 μM compound alone, mean ± SEM, read-out: Peak ΔIsc (% Control) after histamine (100 μM)): 69.3 ± 8.7%
- effect on histamine-stimulated / calcium-mediated chloride ion secretion (in words) [4]: inhibit calcium-mediated chloride secretion; also recorded: inhibited chloride ion secretion in response to increased concentrations of intracellular calcium; also recorded: decreased histamine-stimulated chloride ion secretion relative to control cells
- concentration for maximum decrease of histamine-stimulated chloride ion secretion ([4]; extracellular, no further decrease with 400 μM): 200 µM
- Mechanism and Inositol Polyphosphate Pathway Affected [5]: Agonist of
- effect on intracellular calcium (in words) (intracellular calcium; alone): does not increase intracellular calcium
- effect on calcium response to thapsigargin or carbachol (in words) (intracellular calcium; thapsigargin or carbachol stimulated): does not affect calcium response to thapsigargin

Compound: O=P(O)(O)O[C@H]1[C@H](OP(=O)(O)O)[C@@H](OP(=O)(O)O)[C@@H](O)[C@@H](O)[C@@H]1OP(=O)(O)O [Ins(3,4,5,6)P4, myo-inositol 3,4,5,6-tetrakisphosphate]
- intracellular level corresponding to onset of maximum inhibition [6]: ~4 µM

Compound: CCCC(=O)O[C@@H]1[C@H](OC)[C@H](OP(=O)(OCOC(C)=O)OCOC(C)=O)[C@@H](OP(=O)(OCOC(C)=O)OCOC(C)=O)[C@H](OP(=O)(OCOC(C)=O)OCOC(C)=O)[C@H]1OP(=O)(OCOC(C)=O)OCOC(C)=O (relative stereo) [D,L-1-Bt-2-Me-Ins(3,4,5,6)P4 /AM, D,L-1-O-butyryl-2-O-methyl-myo-inositol 3,4,5,6-TKphosphate oct (acetoxymethyl) ester]
- reversal of the inhibitory effect of Bt2 -Ins(3,4,5,6)P4 /AM / Ins(3,4,5,6)P4-mediated inhibition (in words) [7]: did not reverse the inhibition of Bt2 -Ins(1,4,5,6)P4 /AM
- activity at 800 µM [8]: 114 ± 23.7%
- effect on histamine-stimulated / calcium-mediated chloride ion secretion (in words) [4]: did not inhibit chloride ion secretion
- Mechanism and Inositol Polyphosphate Pathway Affected [5]: Agonist of
- Peak ΔIsc (% Control) after histamine (100 μM) [9]: 96.7 ± 14.8 % Control
